Measured values from patent US10988478B1, “Pyrazolo[1,5a]pyrimidine derivatives as IRAK4 modulators” (Genentech, Inc., priority 2015, dated 2021).

What follows are molecules tested against human IRAK4 (Homo sapiens (Human), UniProt Q9NWZ3) (assay: IRAK4 kinase inhibition, Transcreener fluorescence polarization ADP assay). Settings: recombinant full-length His6-IRAK4; 125 uM ATP; 90 min; Ki computed using ATP Km 642 uM.
Type: biochemical
Method: Compounds were assayed for inhibition of human IRAK4 and IRAK1 catalytic activity using recombinant enzyme produced from insect cells. Full-length IRAK4 protein, carrying an N-terminal His6-Tag, was obtained from Life Technologies (Carlsbad, Calif., USA). The IRAK1 construct was produced internally and was comprised of IRAK1 residues Arg194 to Ser712, preceded by an NH2-terminal His6 tag and the coding sequence for glutathione-S-transferase.

Chain of human IRAK4 (Q9NWZ3 whole entry): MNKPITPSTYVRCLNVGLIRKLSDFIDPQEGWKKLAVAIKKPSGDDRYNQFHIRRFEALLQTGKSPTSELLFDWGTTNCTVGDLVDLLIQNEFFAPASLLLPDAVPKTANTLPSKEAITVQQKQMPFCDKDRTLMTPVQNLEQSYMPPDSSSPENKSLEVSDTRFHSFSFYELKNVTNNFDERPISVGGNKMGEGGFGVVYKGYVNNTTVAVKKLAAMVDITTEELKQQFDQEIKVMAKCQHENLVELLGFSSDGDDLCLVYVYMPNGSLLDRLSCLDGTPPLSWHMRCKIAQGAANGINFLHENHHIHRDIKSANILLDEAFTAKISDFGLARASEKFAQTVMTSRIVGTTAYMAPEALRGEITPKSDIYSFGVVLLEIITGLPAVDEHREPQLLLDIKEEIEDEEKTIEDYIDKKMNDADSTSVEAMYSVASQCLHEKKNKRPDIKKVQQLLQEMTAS

| Compound | Ki |
| --- | --- |
| CC1(C)Cc2cc(NC(=O)c3cnn4cccnc34)c(N3CCn4ccnc4C3)cc2O1 [Example 233] | 100 nM |
| C[C@@]1(CO)Cc2cc(NC(=O)c3cnn4cc(Cl)cnc34)c(N3CCN(CC(F)F)CC3)cc2O1 (single isomer, unassigned) [Example 169] | 2.5 nM |
| CN(Cc1ccc(C#N)cc1)c1cc2c(cc1NC(=O)c1cnn3cccnc13)CC(C)(C)O2 [Example 205, N-(6-((4-cyanobenzyl)(methyl)amino)-2,2-dimethyl-2,3-dihydrobenzofuran-5-yl)pyrazolo[1,5-a]pyrimidine-3-carboxamide] | 86 nM |
| CC1(C)Cc2cc(NC(=O)c3cnn4cccnc34)c(N3CCCC(F)(F)C3)cc2O1 [Example 196, N-(6-(3,3-difluoropiperidin-1-yl)-2,2-dimethyl-2,3-dihydrobenzofuran-5-yl)pyrazolo[1,5-a]pyrimidine-3-carboxamide] | 13 nM |
| C[C@@H]1CN(c2cc3c(cc2NC(=O)c2cnn4cccnc24)CC(C)(C)O3)C[C@H](C)N1CC(N)=O [Example 227, N-(6-((3R,5S)-4-(2-Amino-2-oxoethyl)-3,5-dimethylpiperazin-1-yl)-2,2-dimethyl-2,3-dihydrobenzofuran-5-yl)pyrazolo[1,5-a]pyrimidine-3-carboxamide] | 490 nM |
| CC1(C)Cc2cc(NC(=O)c3cnn4cccnc34)c(N3CCC(c4cc[nH]n4)C3)cc2O1 (stereo not drawn) [Example 192, N-[2,2-dimethyl-6-[3-(1H-pyrazol-3-yl)pyrrolidin-1-yl]-3H-benzofuran-5-yl]pyrazolo[1,5-a]pyrimidine-3-carboxamide] | 44 nM |
| C[C@]1(CO)Cc2cc(NC(=O)c3cnn4cccnc34)c(N3CCC4(CCOC4)CC3)cc2O1 [Example 125, (R)—N-(2-(Hydroxymethyl)-2-methyl-6-(2-oxa-8-azaspiro[4.5]decan-8-yl)-2,3-dihydrobenzofuran-5-yl)pyrazolo[1,5-a]pyrimidine-3-carboxamide] | 5 nM |
| CC1(C)Cc2cc(NC(=O)c3cnn4cccnc34)c(N3CCCC3)cc2O1 [Example 214, N-(2,2-dimethyl-6-(pyrrolidin-1-yl)-2,3-dihydrobenzofuran-5-yl)pyrazolo[1,5-a]pyrimidine-3-carboxamide] | 12 nM |
| CC1(C)Cc2cc(NC(=O)c3cnn4cccnc34)c(N3CCC4(CCCC4O)CC3)cc2O1 (stereo not drawn) [Example 109, N-(6-(1-hydroxy-8-azaspiro[4.5]decan-8-yl)-2,2-dimethyl-2,3-dihydrobenzofuran-5-yl)pyrazolo[1,5-a]pyrimidine-3-carboxamide] | 4.2 nM |
| C[C@H](O)[C@H](F)CN1Cc2cc(NC(=O)c3cnn4cccnc34)c(N3CCOCC3)cc2C1=O [Example 557, N-[2-[(2R,2S)-2-fluoro-3-hydroxy-butyl]-6-morpholino-1-oxo-isoindolin-5-yl]pyrazolo[1,5-a]pyrimidine-3-carboxamide] | 7.3 nM |
| CC1(C)Cc2cc(NC(=O)c3cnn4cccnc34)c(O[C@H]3CC[C@H](O)CC3)cc2O1 [Example 65, Trans-N-[6-(4-hydroxycyclohexoxy)-2,2-dimethyl-3H-benzofuran-5-yl]pyrazolo[1,5-a]pyrimidine-3-carboxamide] | 9.2 nM |
| C[C@]1(O)COc2cc(N3CCC(C#N)CC3)c(NC(=O)c3cnn4cccnc34)cc2C1 [Example 426, (R)-N-(7-(4-cyanopiperidin-1-yl)-3-hydroxy-3-methylchroman-6-yl)pyrazolo[1,5-a]pyrimidine-3-carboxamide] | 5 nM |
| Cn1cc(COc2cc3c(cc2NC(=O)c2cnn4cccnc24)C[C@](C)(O)CO3)cn1 [Example 431, (S)-N-(3-hydroxy-3-methyl-7-((1-methyl-1H-pyrazol-4-yl)methoxy)chroman-6-yl)pyrazolo[1,5-a]pyrimidine-3-carboxamide] | 20 nM |
| C[C@]1(CO)Cc2cc(NC(=O)c3cnn4cccnc34)c(C(F)F)cc2O1 [Example 74, N-[(2R)-6-(difluoromethyl)-2-(hydroxymethyl)-2-methyl-3H-benzofuran-5-yl]pyrazolo[1,5-a]pyrimidine-3-carboxamide] | 750 nM |
| Cn1ccc(-c2cc3c(cc2NC(=O)c2cnn4cccnc24)CC(C)(C)O3)n1 [Example 489, N-(2,2-dimethyl-6-(1-methyl-1H-pyrazol-3-yl)-2,3-dihydrobenzofuran-5-yl)pyrazolo[1,5-a]pyrimidine-3-carboxamide] | 240 nM |
| CC1(C)Cc2cc(NC(=O)c3cnn4cccnc34)c(C3CC3)cc2O1 [Example 384, N-(6-Cyclopropyl-2,2-dimethyl-3H-benzofuran-5-yl)pyrazolo[1,5-a]pyrimidine-3-carboxamide] | 37 nM |
| CC1(C)Cc2cc(NC(=O)c3cnn4cccnc34)c(N3CCNCC3)cc2O1 [Example 533, N-(2,2-dimethyl-6-piperazin-1-yl-3H-benzofuran-5-yl)pyrazolo[1,5-a]pyrimidine-3-carboxamide] | 13 nM |
| CC1(CO)Cc2cc(NC(=O)c3cnn4cccnc34)c(N3CCC(n4ccnc4)CC3)cc2O1 (single isomer, unassigned) [Example 345, N-(6-(4-(1H-imidazol-1-yl)piperidin-1-yl)-2-(hydroxymethyl)-2-methyl-2,3-dihydrobenzofuran-5-yl)pyrazolo[1,5-a]pyrimidine-3-carboxamide] | 4 nM |
| CC1(C)Cc2cc(NC(=O)c3cnn4cccnc34)c(OCc3ccncc3)cc2O1 [Example 301, N-(2,2-Dimethyl-6-(pyridin-4-ylmethoxy)-2,3-dihydrobenzofuran-5-yl)pyrazolo[1,5-α]pyrimidine-3-carboxamide] | 17 nM |
| CC(C)(O)[C@@]1(C)Cc2cc(NC(=O)c3cnn4cccnc34)c(N3CCOCC3)cc2O1 [Example 157, (R)—N-(2-(2-Hydroxypropan-2-yl)-2-methyl-6-morpholino-2,3-dihydrobenzofuran-5-yl)pyrazolo[1,5-a]pyrimidine-3-carboxamide] | 8.8 nM |

More lines, in order of falling Ki, values ahead:

| Ki | Compound |
| --- | --- |
| 540 nM | C[C@@]1(CO)Cc2cc(NC(=O)c3cnn4cccnc34)c(N3C[C@@H]4C[C@H]3CO4)cc2O1 (single isomer, unassigned) [Example 46] |
| 210 nM | CC1(C)Cc2cc(NC(=O)c3cnn4ccc(C[C@H]5CNC(=O)C5)nc34)c(C3CC3)cc2O1 [Example 513, (R)—N-(6-cyclopropyl-2,2-dimethyl-2,3-dihydrobenzofuran-5-yl)-5-((5-oxopyrrolidin-3-yl)methyl)pyrazolo[1,5-a]pyrimidine-3-carboxamide] |
| 78 nM | CC1(C)Cc2cc(NC(=O)c3cnn4cccnc34)c(N3CC4C(C3)C4(F)F)cc2O1 (stereo not drawn) [Example 112, N-(6-(6,6-difluoro-3-azabicyclo[3.1.0]hexan-3-yl)-2,2-dimethyl-2,3-dihydrobenzofuran-5-yl)pyrazolo[1,5-a]pyrimidine-3-carboxamide] |
| 43 nM | CC1(C)Cc2cc(NC(=O)c3cnn4cccnc34)c(C3CCN(CC(F)(F)F)CC3)cc2O1 [Example 90, N-[2,2-Dimethyl-6-[1-(2,2,2-trifluoroethyl)-4-piperidyl]-3H-benzofuran-5-yl]pyrazolo[1,5-a]pyrimidine-3-carboxamide] |
| 24 nM | C[C@]1(CO)Cc2cc(NC(=O)c3cnn4cccnc34)c(N3CCC(F)(F)C3)cc2O1 [Example 66, N-[(2R)-6-(3,3-Difluoropyrrolidin-1-yl)-2-(hydroxymethyl)-2-methyl-3H-benzofuran-5-yl]pyrazolo[1,5-a]pyrimidine-3-carboxamide] |
| 21 nM | C[C@@]1(CO)Cc2cc(NC(=O)c3cnn4cccnc34)c(N3CC[C@H](F)C3)cc2O1 [Example 56, N-[(2S)-6-[(3S)-3-Fluoropyrrolidin-1-yl]-2-(hydroxymethyl)-2-methyl-3H-benzofuran-5-yl]pyrazolo[1,5-a]pyrimidine-3-carboxamide] |
| 17 nM | CC1(C)Cc2cc(NC(=O)c3cnn4cccnc34)c(N3CCCC(F)(F)CC3)cc2O1 [Example 207, N-(6-(4,4-difluoroazepan-1-yl)-2,2-dimethyl-2,3-dihydrobenzofuran-5-yl)pyrazolo[1,5-a]pyrimidine-3-carboxamide] |
| 9 nM | C[C@]1(CO)Cc2cc(NC(=O)c3cnn4cccnc34)c(N3Cc4cccnc4C3)cc2O1 (single isomer, unassigned) [Example 419] |
| 8 nM | CC1(CO)Cc2cc(NC(=O)c3cnn4cccnc34)c(N3CCC(n4ccnc4)CC3)cc2O1 (single isomer, unassigned) [Example 344, N-(6-(4-(1H-imidazol-1-yl)piperidin-1-yl)-2-(hydroxymethyl)-2-methyl-2,3-dihydrobenzofuran-5-yl)pyrazolo[1,5-a]pyrimidine-3-carboxamide] |
| 6.7 nM | CC1(COC(F)F)Cc2cc(NC(=O)c3cnn4cccnc34)c(N3CCN(CC(F)F)CC3)cc2O1 (stereo not drawn) [Example 362, N-(6-(4-(2,2-difluoroethyl)piperazin-1-yl)-2-((difluoromethoxy)methyl)-2-methyl-2,3-dihydrobenzofuran-5-yl)pyrazolo[1,5-a]pyrimidine-3-carboxamide] |
| 6 nM | C[C@]1(O)CCCN(c2cc3c(cc2NC(=O)c2cnn4cccnc24)C[C@@](C)(CO)O3)CC1 [Example 332, N-((S)-6-((S)-4-hydroxy-4-methylazepan-1-yl)-2-(hydroxymethyl)-2-methyl-2,3-dihydrobenzofuran-5-yl)pyrazolo[1,5-a]pyrimidine-3-carboxamide] |
| 4 nM | CC(C)N1Cc2cc(NC(=O)c3cnn4cccnc34)c(N3CCN(CC(N)=O)CC3)cc2C1=O [Example 272, N-[6-[4-(2-Amino-2-oxo-ethyl)piperazin-1-yl]-2-isopropyl-1-oxo-isoindolin-5-yl]pyrazolo[1,5-a]pyrimidine-3-carboxamide] |
| 2.2 nM | O=C(Nc1cc2c(cc1N1CCOCC1)C(=O)N(C[C@@H]1CCC[C@@H]1O)C2)c1cnn2cccnc12 [Example 559, N-[2-[[(1S,2S)-2-hydroxycyclopentyl]methyl]-6-morpholino-1-oxo-isoindolin-5-yl]pyrazolo[1,5-a]pyrimidine-3-carboxamide] |
